pIC50: −log10 of the molar value.
Legend:
[1] = tested on: NSCLC cells (PC-9, A549 or H460); assay: cells; format: cell-based, human; conditions: Supplementary Table 1, cell line (PC-9, A549 or H460) not assignable
Experimental: (§1) The cytotoxicity and viability of human NSCLC cells and normal cells were determined by MTT assay. MTT assay was performed as described previously.[22] MTT assay was used to determine the cell cytotoxicity and viability in human NSCLC cells. Cells (5 × 10^3 cells/well) were plated in 96-well plates and attached overnight. After the proper treatment, the MTT solution was added at 25 µL/well and incubated at 37 °C for 4 h. The formazan crystals were dissolved in 150 µL of DMSO, and the optical density (OD) was measured using a Microplate Reader at 490 nm. The cell viability was calculated by the following formula: viability = (average OD values of treatment wells/average OD values of vehicle control wells) × 100%. And half-maximal inhibitory concentration (IC50) values were determined by GraphPad Pro Prism 7.0.

[2] = tested on: PC-9 cells; assay: MTT cytotoxicity assay, PC-9 cells; format: cell-based; conditions: Homo sapiens
Experimental: as §1

[3] = molecular target: T1, CDK9 (Homo sapiens, UniProt P50750); assay: HuProt human proteome microarray binding; conditions: 10 μM on HuProt microarray, CDK9 spots
T1 construct: GST (N); purchased CDI Laboratories, Baltimore, MD Arrayit HuProt v2.0 19 K Human Proteome Microarrays
T1 sequence (P50750 whole entry): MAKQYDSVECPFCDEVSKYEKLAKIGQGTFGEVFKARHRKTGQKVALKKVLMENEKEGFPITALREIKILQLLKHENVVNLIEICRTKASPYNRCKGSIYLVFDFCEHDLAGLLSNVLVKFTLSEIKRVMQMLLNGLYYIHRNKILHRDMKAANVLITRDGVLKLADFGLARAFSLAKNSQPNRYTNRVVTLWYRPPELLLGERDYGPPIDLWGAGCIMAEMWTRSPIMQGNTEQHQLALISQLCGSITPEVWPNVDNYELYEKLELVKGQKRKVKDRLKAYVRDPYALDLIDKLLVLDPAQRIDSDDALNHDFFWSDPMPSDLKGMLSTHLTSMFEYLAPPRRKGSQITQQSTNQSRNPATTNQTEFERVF
Experimental: Arrayit HuProt™ v2.0 19 K Human Proteome Microarrays (CDI Laboratories, Baltimore, MD) were blocked for 1 h with 3% BSA at room temperature. Biotinylated bufalin was diluted to 10 μM in blocking buffer and cultured on the proteome microarray at room temperature for 1 h. The arrays were washed with PBST (a mixture of PBS and Tween 20) and incubated with Cy3-Streptavidin at 1:1000 dilution (Sigma-Aldrich) for 1 h at room temperature. Finally, the microarray was spun dry and scanned with a GenePix 4200 A microarray scanner (Molecular Devices, San Jose, CA). Data were analysed by GenePix Pro 6.0 software. The signal-to-noise ratio (SNR) was defined as the ratio of median foreground value minus median background value. The cut-off value of SNR (>1.1) was set.

[4] = tested on: A549 cells; assay: MTT cytotoxicity assay, A549 cells; format: cell-based; conditions: Homo sapiens, A549
Experimental: as §1

[5] = tested on: H460 cells; assay: MTT cytotoxicity assay, H460 cells; format: cell-based; conditions: Homo sapiens, NCI-H460
Experimental: as §1

[6] = tested on: NIH mice; assay: Acute toxicity test; format: in vivo; conditions: 30 mg/kg single intraperitoneal injection, observed 14 days, n = 10
Experimental: In the acute toxicity test, 30 NIH mice (female, 8 weeks old) were randomly divided into three groups (n = 10), including vehicle group, bufalin group (30 mg/kg) and acetyl-bufalin group (30 mg/kg). The three groups received intraperitoneal injection only on the first day. All the mice were housed under 12 h light–dark cycles at 25 °C and free for water and diet. […] All the mice were sacrificed by cervical dislocation.

[7] = Pharmacokinetic study in rat plasma (LC-MS/MS); format: in vivo, S.D. rats; conditions: 0.25 mg/kg i.v. and 2 mg/kg i.p.
Experimental: For the pharmacokinetic study, female S.D. rats (body weight 200 ± 10 g) have fasted overnight with free access to water before the experiment. Twelve rats were randomly divided into four groups. The time schedule included eight timepoints, and three S.D. rats were sampled at each time-point. Bufalin and acetyl-bufalin were administered intravenously and intraperitoneally to the rats at the dose of 0.25 mg/kg and 2 mg/kg, respectively. The animals had free access to water during the experiment. Blood samples were collected from the retro-orbital plexus of each rat at 0.083, 0.25, 0.5, 1, 2, 4, 6, 8, 12, 24 h after administration. Plasma was separated from the blood after centrifugation at 6000×g for 10 min and frozen at −20 °C until analysis. In total, 20 µL of standard samples in duplicate, quality control samples in duplicate and rat plasma samples were mixed with 60 µL of ethyl acetate containing IS (200 ng/mL of tolbutamide, 50 ng/mL of propranolol and 500 ng/mL of Dic) in EP tubes. After the mixture was vortexed for 1 min, then centrifuged for 10 min (13,000 rpm, 4 °C), transferred 50 µL supernatant to a 96-well plate with 150 µL purred water, shacked for 10 min and finally injected 5 µL into liquid chromatographic-tandem mass spectrometry (LC-MS/MS) system for analysis.

[8] = tested on: H460 xenograft; format: in vivo, BALB/c nude mice; conditions: 2 mg/kg i.p. every other day, compared with vehicle
Experimental: All animal procedures were done accordingly with the Institutional laboratory animal research guidelines and were approved by Wenzhou Medical University Animal Policy and Welfare Committee. Female athymic BALB/c nude mice (5–6 weeks old) and immune-defective non-obese […] diabetic severe combined immunodeficiency (NOD-SCID) mice (6–8 weeks old) were purchased from the Vital River Experimental Animal Center (Beijing, China). All the mice were housed under 12 h light–dark cycles at 25 °C and free for water and diet. For the xenograft model, the H460 cells (5 × 10^6 cells were mixed with an equal volume of PBS and Matrigel in 100 μL) were implanted on the hind flank of nude mice. Once tumour volumes reached ~50 mm^3, 24 mice were divided into four experimental groups (six mice per group, no differences in mean body weights or tumour volumes between the groups) and intraperitoneal injection with 2 mg/kg SNS-032 (a recognised CDK9 inhibitor), bufalin and acetyl-bufalin every other day. Tumour volume was measured as V = (L × W × W)/2, in which L and W represent the length and width of tumour. Animals were killed by cervical dislocation once the tumour volume reached 1000 mm^3. The tumours, hearts, livers, kidneys and lungs were removed for use in the histology and western blot analysis.

[9] = tested on: P-CDK9, CDK9, P-STAT3 and S2 RNAPII; assay: Western blot of CDK9/STAT3 pathway proteins; format: cell-based, human; conditions: H460 and PC-9 cells, 12 h; acetyl-bufalin 25-200 nM, SNS-032 200 nM
Experimental: Tissue proteins were extracted with tissue protein lysate buffer. Cells were grown to different densities and extracted with cell protein lysate buffer. The protein was mixed with loading buffer and boiled for 10 min at 100 °C, then loaded and separated by 10% or 12% sodium dodecyl sulfate-polyacrylamide gel (SDS-PAGE) and then transferred onto a PVDF membrane blocking with 5% skim milk. The blots were incubated overnight with specific primary antibodies at 4 °C. On the second day, after washing with TBST (a mixture of tris-buffered saline (TBS) and Tween 20) three times, the […] membranes were incubated with horseradish peroxidase-conjugated secondary antibodies for 1 h. The immunoreactive bands were visualised with enhanced chemiluminescence reagent.

In the case of `CC(=O)O[C@H]1[C@H]2O[C@]23[C@@H]2CC[C@]4(O)C[C@@H](O)CC[C@]4(C)[C@H]2CC[C@]3(C)[C@H]1c1ccc(=O)oc1` [Cinobufotalin], the pIC50 ([1]; Homo sapiens) was 6.23.
With `C[C@]12CC[C@H](OC(=O)CCCC[C@@H]3SC[C@@H]4NC(=O)N[C@@H]43)C[C@H]1CC[C@@H]1[C@@H]2CC[C@]2(C)[C@H](c3ccc(=O)oc3)CC[C@@]12O` [bio-bufalin] the pIC50 ([2]; PC-9, 48 h) was 7.11 and the “signal-to-noise ratio (SNR)” value [3] was 6.748.
Molecule Resibufagin has a pIC50 [1] of 4.80.
In the case of `C[C@]12CC[C@H](O)C[C@H]1CC[C@@H]1[C@@H]2CC[C@]2(C)[C@@H](c3ccc(=O)oc3)CC[C@]12O` [bufalin, reference compound], the pIC50 ([2]; PC-9, 48 h) was 6.85, the pIC50 [4] was 7.08 and the pIC50 [5] was 7.19. For the same molecule, the “mortality (mice died)” value [6] was 10/10, the absorption [7] was “fast absorption” and the “tumour growth (weight and volume)” value [8] was “significantly inhibited tumour growth”.
In the case of `C[C@]12CC[C@H](O)C[C@H]1CC[C@@H]1[C@@H]2CC[C@]2(C)[C@@H](c3ccc(=O)oc3)C[C@H]3O[C@]132` [Resibufogenin], the pIC50 ([2]; PC-9) was 5.33, the pIC50 [4] was 5.95 and the pIC50 [5] was 5.97.
For `CC(=O)O[C@H]1C[C@]2(O)[C@@H]3CC[C@@H]4C[C@@H](O)CC[C@]4(C)[C@H]3CC[C@]2(C)[C@H]1c1ccc(=O)oc1` [Bufotalin], the pIC50 ([1]; Homo sapiens) was 6.09.
`CC(=O)O[C@H]1[C@H]2O[C@]23[C@@H]2CC[C@@H]4C[C@@H](O)CC[C@]4(C)[C@H]2CC[C@]3(C)[C@H]1c1ccc(=O)oc1` [Cinobufagin] gave a pIC50 ([1]; Homo sapiens) of 6.38.
In the case of `CC(C)(C)c1cnc(CSc2cnc(NC(=O)C3CCNCC3)s2)o1` [SNS-032, reference compound], the “P-CDK9, CDK9, P-STAT3 and S2 RNAPII expressions” value [9] was “significantly dose-dependently decreased” and the “tumour growth (weight and volume)” value [8] was “significantly inhibited tumour growth”.

Source: publication PMC7851395 (British Journal of Cancer, 2020)
